This is an account of results in patent US6600037B1, “4,5-disubstituted-2-aminopyrimidines” (Celltech R & D Limited, priority 1999, dated 2003).

For orientation: melting point means the temperature, or range, at which the solid turns liquid. `CC(C)(N)c1ccc(-c2nc(Nc3ccc(CCn4ccnc4)cc3)ncc2Cl)cc1F` [Example 10, 4-[4-(1-Amino-1-methylethyl)-3-fluorophenyl]-5-chloro-N-[4-(2-(imidazol-1-yl)ethyl)phenyl]pyrimidine 2-amine] had a melting point of 112 to 120 °C.
The value for `CC(C)(N)c1ccc(-c2nc(Nc3ccc(CCO)cc3)ncc2Cl)cc1F` [Example 4, 4-[4-(1-Amino-1-methylethyl)-3-fluorophenyl]-5-chloro-N-[4-(2-hydroxyethyl)phenyl]pyrimidine-2-amine] was 172 to 176 °C; that for `CC(C)(N)c1ccc(-c2nc(Nc3ccc(-n4ccnc4)cc3)ncc2Cl)cc1` [Example 3, 4-[4-(1-Amino-1-methylethyl)phenyl]-5-chloro-N-[4-(1-imidazolyl)phenyl]pyrimidine-2-amine] was 199 to 201 °C; that for `CC(C)(N)c1ccc(-c2nc(Nc3ccc(CCN4CCOCC4)cc3)ncc2Cl)cc1` [Example 9, 4-[4-(1-Amino-1-methylethyl)phenyl]-5-chloro-N-[4-(2-morpholinoethyl)phenyl]pyrimidine-2-amine] was 166 to 173 °C.
As to `CC(C)(N)c1ccc(-c2nc(Nc3ccc(CCO)cc3)ncc2Cl)cc1` [Example 1, 4-[4-(1-Amino-1-methylethyl)phenyl]-5-chloro-N-[4-(2-hydroxyethyl)phenyl]pyrimidine-2-amine], the melting point was 162 to 163 °C.
`CC(C)(N)c1ccc(-c2nc(Nc3cccc(CCO)c3)ncc2Cl)cc1` [Example 2, 4-[4-(1-Amino-1-methylethyl)phenyl]-5-chloro-N-[3-(2-hydroxyethyl)phenyl]pyrimidine-2-amine] came in with a melting point of 184 to 185 °C.
Next, `C=CCOC(=O)NC(C)(C)c1ccc(-c2nc(Nc3ccc(CCn4ccnc4)cc3)ncc2Cl)cc1` [Example 5, 4-[4-(1-Allyloxycarbonylamino-1-methylethyl)phenyl]-5-chloro-N-[4-(2-(imidazol-1-yl)ethyl)phenyl]pyrimidine-2-amine]: 72 to 78 °C; `C=CCOC(=O)NC(C)(C)c1ccc(-c2nc(Nc3ccc(CCn4ccnc4)cc3)ncc2Cl)cc1F` [Example 7, 4-[4-(1-Allyloxycarbonylamino-1-methylethyl)-3-fluorophenyl]-5-chloro-N-[4-(2-(imidazol-1-yl)ethyl)phenyl]pyrimidine-2-amine]: 88 °C.
